# Laboratory results taken from US20070128217A1 (priority 2003, published 2007).
# Tests used:
# [1] = tested on: antibodies in sera from SARS patients (sera 1a, 1b, 2, 6, 37, 62, London, SARS-yellow, SARS-green); format: binding, human; parameters: Binding of serum 6 to linear peptides of protein X1 of SARS-CoV Urbani / Binding of serum 37 to linear peptides of protein X1 of SARS-CoV Urbani / Binding of serum 6 to looped/cyclic peptide (PEPSCAN-ELISA) / Binding of serum 37 to looped/cyclic peptide (PEPSCAN-ELISA) / Binding of serum 37 to looped/cyclic peptides of protein X1 of SARS-CoV Urbani / Binding of serum 6 to linear peptides of protein X2 / Binding of serum 37 to linear peptides of protein X2 / Binding of serum 37 to looped/cyclic peptides of protein X2 of SARS-CoV Urbani / Binding of serum 6 to linear peptides of protein M of SARS-CoV Urbani / Binding of serum 37 to linear peptides of protein M of SARS-CoV Urbani / Binding of serum 6 to looped/cyclic peptides of protein M of SARS-CoV Urbani / Binding of serum 37 to looped/cyclic peptides of protein M of SARS-CoV Urbani / Binding of serum 6 to linear peptides of protein X3 of SARS-CoV Urbani / Binding of serum 37 to linear peptides of protein X3 of SARS-CoV Urbani / Binding of serum 37 to looped/cyclic peptides of protein X3 of SARS-CoV Urbani / Binding of serum 6 to linear peptides of protein X4 of SARS-CoV Urbani / Binding of serum 37 to linear peptides of protein X4 of SARS-CoV Urbani / Binding of serum 37 to looped/cyclic peptides of protein X4 of SARS-CoV Urbani / Binding of serum 6 to linear peptides of protein X5 of SARS-CoV Urbani / Binding of serum 37 to linear peptides of protein X5 of SARS-CoV Urbani / Binding of serum 37 to looped/cyclic peptides of protein X5 of SARS-CoV Urbani / Binding of serum 6 to linear peptides of protein N of SARS-CoV Urbani / Binding of serum 37 to linear peptides of protein N of SARS-CoV Urbani / Binding of serum 6 to linear peptide (PEPSCAN-ELISA) / Binding of serum 1a to looped/cyclic peptides of protein N of SARS-CoV Urbani / Binding of serum 1b to looped/cyclic peptides of protein N of SARS-CoV Urbani / Binding of serum 2 to looped/cyclic peptides of protein N of SARS-CoV Urbani / Binding of serum 6 to looped/cyclic peptides of protein N of SARS-CoV Urbani / Binding of serum 37 to looped/cyclic peptides of protein N of SARS-CoV Urbani / Binding of serum 62 to looped/cyclic peptides of protein N of SARS-CoV Urbani / Binding of serum London to looped/cyclic peptides of protein N of SARS-CoV Urbani / Binding of serum SARS-green to looped/cyclic peptides of protein N of SARS-CoV Urbani: unit not given here
# [2] = tested on: rabbit serum obtained by immunizing a rabbit with the SARS-CoV strain Frankfurt 1; format: binding; parameters: Binding of a rabbit serum to linear peptides / Binding of a rabbit serum to looped peptides / Rabbit serum linear peptides / Rabbit serum looped peptides / Binding of a rabbit serum to linear peptides of protein N of SARS-CoV Urbani (Rabbit serum linear peptides) / Binding of a rabbit serum to looped/cyclic peptides of protein N of SARS-CoV Urbani (Rabbit serum looped peptides): unit not given here
# [3] = tested on: control sera (pooled serum of ten healthy LUMC hospital workers; commercial negative donor pooled serum from the Dutch bloodbank); format: binding, human; parameters: Binding of Control serum LUMC to linear peptides / Binding of Control serum Blood-bank to linear peptides / Binding of Control serum LUMC to looped peptides / Binding of Control Serum Blood-Bank to Looped peptides / Binding of Control serum LUMC to linear peptides of the protein M of SARS-CoV Urbani / Binding of Control serum Blood-bank to linear peptides of the protein M of SARS-CoV Urbani / Binding of Control serum LUMC to looped peptides of the protein M of SARS-CoV Urbani / Binding of Control Serum Blood-Bank to Looped peptides of the protein M of SARS-CoV Urbani: unit not given here
sequence,measurement,setting,value
GNTYSTAWLCALGKV,Binding of serum 1a to linear peptides of protein X5 of SARS-CoV Urbani,[1],0.8
same,Binding of serum 1a to looped/cyclic peptides of protein X5 of SARS-CoV Urbani,[1],0.4
same,Binding of serum 1b to linear peptides of protein X5 of SARS-CoV Urbani,[1],0.6
same,Binding of serum 1b to looped/cyclic peptides of protein X5 of SARS-CoV Urbani,[1],0.2
same,Binding of serum 2 to linear peptides of protein X5 of SARS-CoV Urbani,[1],0.9
same,Binding of serum 2 to looped/cyclic peptides of protein X5 of SARS-CoV Urbani,[1],0.5
same,Binding of serum 6 to linear peptides of protein X5 of SARS-CoV Urbani,[1],0.6
same,Binding of serum 6 to looped/cyclic peptides of protein X5 of SARS-CoV Urbani,[1],0.3
same,Binding of serum 37 to linear peptides of protein X5 of SARS-CoV Urbani,[1],0.7
same,Binding of serum 37 to looped/cyclic peptides of protein X5 of SARS-CoV Urbani,[1],0.5
same,Binding of serum 62 to linear peptides of protein X5 of SARS-CoV Urbani,[1],0.8
same,Binding of serum 62 to looped/cyclic peptides of protein X5 of SARS-CoV Urbani,[1],0.7
same,Binding of serum London to linear peptides of protein X5 of SARS-CoV Urbani,[1],0.7
same,Binding of serum London to looped/cyclic peptides of protein X5 of SARS-CoV Urbani,[1],0.2
same,Binding of serum SARS-green to linear peptides of protein X5 of SARS-CoV Urbani,[1],0.6
same,Binding of serum SARS-green to looped/cyclic peptides of protein X5 of SARS-CoV Urbani,[1],0.3
same,Binding of serum SARS-yellow to linear peptides of protein X5 of SARS-CoV Urbani,[1],0.4
same,Binding of serum SARS-yellow to looped/cyclic peptides of protein X5 of SARS-CoV Urbani,[1],0.5
same,Rabbit serum linear peptides,[2],0.9
same,Rabbit serum looped peptides,[2],0.6
same,Binding of Control Serum Blood-Bank to Looped peptides,[3],0.4
same,Binding of Control serum Blood-bank to linear peptides,[3],0.9
same,Binding of Control serum LUMC to linear peptides,[3],0.5
same,Binding of Control serum LUMC to looped peptides,[3],0.6
GTDSGFAAYNRYRIG,Binding of serum 1a to linear peptides of protein M of SARS-CoV Urbani,[1],0.6
same,Binding of serum 1a to looped/cyclic peptides of protein M of SARS-CoV Urbani,[1],0.8
same,Binding of serum 1b to linear peptides of protein M of SARS-CoV Urbani,[1],0.4
same,Binding of serum 1b to looped/cyclic peptides of protein M of SARS-CoV Urbani,[1],0.5
same,Binding of serum 2 to linear peptides of protein M of SARS-CoV Urbani,[1],0.4
same,Binding of serum 2 to looped/cyclic peptides of protein M of SARS-CoV Urbani,[1],0.6
same,Binding of serum 6 to linear peptides of protein M of SARS-CoV Urbani,[1],0.7
same,Binding of serum 6 to looped/cyclic peptides of protein M of SARS-CoV Urbani,[1],0.8
same,Binding of serum 37 to linear peptides of protein M of SARS-CoV Urbani,[1],0.6
same,Binding of serum 37 to looped/cyclic peptides of protein M of SARS-CoV Urbani,[1],0.7
same,Binding of serum 62 to linear peptides of protein M of SARS-CoV Urbani,[1],0.5
same,Binding of serum 62 to looped/cyclic peptides of protein M of SARS-CoV Urbani,[1],0.6
same,Binding of serum London to linear peptides of protein M of SARS-CoV Urbani,[1],0.3
same,Binding of serum London to looped/cyclic peptides of protein M of SARS-CoV Urbani,[1],0.3
same,Binding of serum SARS-green to linear peptides of protein M of SARS-CoV Urbani,[1],0.4
same,Binding of serum SARS-green to looped/cyclic peptides of protein M of SARS-CoV Urbani,[1],0.4
same,Binding of serum SARS-yellow to linear peptides of protein M of SARS-CoV Urbani,[1],0.2
same,Binding of serum SARS-yellow to looped/cyclic peptides of protein M of SARS-CoV Urbani,[1],0.9
same,Rabbit serum linear peptides,[2],0.2
same,Rabbit serum looped peptides,[2],0.4
same,Binding of Control Serum Blood-Bank to Looped peptides of the protein M of SARS-CoV Urbani,[3],0.6
same,Binding of Control serum Blood-bank to linear peptides of the protein M of SARS-CoV Urbani,[3],0.7
same,Binding of Control serum LUMC to linear peptides of the protein M of SARS-CoV Urbani,[3],0.5
same,Binding of Control serum LUMC to looped peptides of the protein M of SARS-CoV Urbani,[3],0.7
HGYFTEVYYQLESTQ,Binding of serum 1a to linear peptides of protein X1 of SARS-CoV Urbani,[1],0.6
same,Binding of serum 1a to looped/cyclic peptides of protein X1 of SARS-CoV Urbani,[1],0.5
same,Binding of serum 1b to linear peptides of protein X1 of SARS-CoV Urbani,[1],0.4
same,Binding of serum 1b to looped/cyclic peptides of protein X1 of SARS-CoV Urbani,[1],0.4
same,Binding of serum 2 to linear peptides of protein X1 of SARS-CoV Urbani,[1],0.4
same,Binding of serum 2 to looped/cyclic peptides of protein X1 of SARS-CoV Urbani,[1],0.4
same,Binding of serum 6 to linear peptides of protein X1 of SARS-CoV Urbani,[1],0.3
same,Binding of serum 6 to looped/cyclic peptides of protein X1 of SARS-CoV Urbani,[1],0.3
same,Binding of serum 37 to linear peptides of protein X1 of SARS-CoV Urbani,[1],0.4
same,Binding of serum 37 to looped/cyclic peptides of protein X1 of SARS-CoV Urbani,[1],0.5
same,Binding of serum 62 to linear peptides of protein X1 of SARS-CoV Urbani,[1],0.4
same,Binding of serum 62 to looped/cyclic peptides of protein X1 of SARS-CoV Urbani,[1],0.5
same,Binding of serum London to linear peptides of protein X1 of SARS-CoV Urbani,[1],0.2
same,Binding of serum London to looped/cyclic peptides of protein X1 of SARS-CoV Urbani,[1],0.2
same,Binding of serum SARS-green to linear peptides of protein X1 of SARS-CoV Urbani,[1],0.2
same,Binding of serum SARS-green to looped/cyclic peptides of protein X1 of SARS-CoV Urbani,[1],0.3
same,Binding of serum SARS-yellow to linear peptides of protein X1 of SARS-CoV Urbani,[1],0.0
same,Binding of serum SARS-yellow to looped/cyclic peptides of protein X1 of SARS-CoV Urbani,[1],0.4
same,Binding of a rabbit serum to linear peptides,[2],0.1
same,Binding of a rabbit serum to looped peptides,[2],0.5
same,Binding of Control Serum Blood-Bank to Looped peptides,[3],0.5
same,Binding of Control serum Blood-bank to linear peptides,[3],0.4
same,Binding of Control serum LUMC to linear peptides,[3],0.3
same,Binding of Control serum LUMC to looped peptides,[3],0.5
HITMTTVYHITVSQI,Binding of serum 1a to linear peptides of protein X2,[1],0.6
same,Binding of serum 1a to looped/cyclic peptides of protein X2 of SARS-CoV Urbani,[1],0.6
same,Binding of serum 1b to linear peptides of protein X2,[1],0.6
same,Binding of serum 1b to looped/cyclic peptides of protein X2 of SARS-CoV Urbani,[1],0.6
same,Binding of serum 2 to linear peptides of protein X2,[1],0.5
same,Binding of serum 2 to looped/cyclic peptides of protein X2 of SARS-CoV Urbani,[1],0.3
same,Binding of serum 6 to linear peptides of protein X2,[1],0.4
same,Binding of serum 6 to looped/cyclic peptides of protein X2 of SARS-CoV Urbani,[1],0.3
same,Binding of serum 37 to linear peptides of protein X2,[1],0.6
same,Binding of serum 37 to looped/cyclic peptides of protein X2 of SARS-CoV Urbani,[1],0.6
same,Binding of serum 62 to linear peptides of protein X2,[1],0.3
same,Binding of serum 62 to looped/cyclic peptides of protein X2 of SARS-CoV Urbani,[1],0.7
same,Binding of serum London to linear peptides of protein X2,[1],0.4
same,Binding of serum London to looped/cyclic peptides of protein X2 of SARS-CoV Urbani,[1],0.2
same,Binding of serum SARS-green to linear peptides of protein X2,[1],0.2
same,Binding of serum SARS-green to looped/cyclic peptides of protein X2 of SARS-CoV Urbani,[1],0.4
same,Binding of serum SARS-yellow to linear peptides of protein X2,[1],0.7
same,Binding of serum SARS-yellow to looped/cyclic peptides of protein X2 of SARS-CoV Urbani,[1],0.5
same,Binding of a rabbit serum to linear peptides,[2],0.7
same,Binding of a rabbit serum to looped peptides,[2],0.4
same,Binding of Control Serum Blood-Bank to Looped peptides,[3],0.7
same,Binding of Control serum Blood-bank to linear peptides,[3],0.5
same,Binding of Control serum LUMC to linear peptides,[3],0.5
same,Binding of Control serum LUMC to looped peptides,[3],0.6
HKKVSTNLCTHSFRK,Binding of serum 1a to looped/cyclic peptides of protein X2 of SARS-CoV Urbani,[1],0.6
same,Binding of serum 1b to looped/cyclic peptides of protein X2 of SARS-CoV Urbani,[1],0.4
same,Binding of serum 2 to looped/cyclic peptides of protein X2 of SARS-CoV Urbani,[1],0.8
same,Binding of serum 6 to looped/cyclic peptides of protein X2 of SARS-CoV Urbani,[1],0.6
same,Binding of serum 37 to looped/cyclic peptides of protein X2 of SARS-CoV Urbani,[1],0.5
same,Binding of serum 62 to looped/cyclic peptides of protein X2 of SARS-CoV Urbani,[1],0.7
same,Binding of serum London to looped/cyclic peptides of protein X2 of SARS-CoV Urbani,[1],0.3
same,Binding of serum SARS-green to looped/cyclic peptides of protein X2 of SARS-CoV Urbani,[1],0.3
same,Binding of serum SARS-yellow to looped/cyclic peptides of protein X2 of SARS-CoV Urbani,[1],0.6
same,"Recognition of the peptide by sera of SARS-CoV infected individuals, and form (linear, looped/cyclic) in which it is recognized",[1],recognized in linear form
same,Binding of a rabbit serum to linear peptides,[2],0.4
same,Binding of a rabbit serum to looped peptides,[2],0.1
same,Binding of Control Serum Blood-Bank to Looped peptides,[3],0.5
same,Binding of Control serum Blood-bank to linear peptides,[3],0.8
same,Binding of Control serum LUMC to linear peptides,[3],0.9
same,Binding of Control serum LUMC to looped peptides,[3],0.8
